System: 898857-211-R-J1-PDC complex spheroids, growth % test/control
Test: Anticancer human tumor 898857-211-R-J1-PDC patient-derived melanoma cell line growth inhibition [RAS]
Conditions: for IC50: curve of first compound; for viability, T/C: stronger effect = lower value
Description: RAS pathway inhibitors in Combinations in Complex Spheroids
A high-throughput screen of multi-cell type tumor spheroids was designed to identify active combinations of RAS pathway inhibitors and targeted small molecules. Complex spheroids include a stromal component modeled by human endothelial cells (HUVEC) and fibroblasts modeled by human mesenchymal stem cells (MSCs). The concentration ranges selected for each drug and investigational agent were based upon clinically achievable concentrations if the clinical Cmax of the agent was known.
Compounds. The drugs and investigational agents: abemaciclib (NSC768073), cobimetinib (NSC768068), divarasib (GDC6063, NSC841802), docetaxel (NSC628503), GDC-1971 (RLY-1971, NSC841576), gemcitabine (NSC613327), inavolisib (NSC800729), ipatasertib (NSC767898), KB-0742 (NSC834161), MRTX-1133 (NSC836407), osimertinib (NSC779217), RMC-4630 (NSC839698), RMC-6236 (NSC851965), RMC-6291 (NSC852671), Ro-3306 (NSC812927), sapanisertib (NSC764658), SN-38 (NSC673596), staurosporine (NSC755774), SY5609 (NSC837396), and tovorafenib (DAY101, NSC766906), were obtained from the National Cancer Institute (NCI) Developmental Therapeutics Program Chemical Repository. The FDA-approved anticancer drug set is available from the NCI Developmental Therapeutics Program. […] The stock solutions were prepared in dimethyl sulfoxide (DMSO, Sigma-Aldrich, St. Louis, MO, cat. D2650) at 800-fold the tested concentration and stored at -70 degrees C prior to their use. All drugs and investigational agents were tested over a range starting from a high concentration at or near the clinical Cmax and decreasing in half-log increments. If the clinical Cmax for an agent had not been determined, the highest concentration tested was 10 microM.
Cell Culture. All cells were maintained in an incubator at 37 degrees C and 5% CO2 with 95% humidity. The PDC lines were cultured according to standard operating procedures established by the NCI PDMR. All PDCs were thawed and cultured in Matrigel-coated flasks prepared with a working solution of 1X Ham's F-12 nutrient mix, without supplementation (Invitrogen, Waltham, MA, cat. 11765054), 100 U/mL penicillin-streptomycin (Invitrogen, cat. 15140122), and 2.5% Matrigel (Corning Inc., Corning, NY, cat. 354248) for the first three passages. The 362531-283-R-J2-PDC and 782815-120-R-J1-PDC lines were cultured in 6C/Colon 1B media, which includes advanced DMEM/F-12 (Thermo Fisher Scientific, cat. 12634028), 10 mM HEPES (Thermo Fisher Scientific, cat. 15630080), 1X GlutaMAX supplement (Thermo Fisher Scientific, cat. 35050061), 0.1 mg/mL primocin (InvivoGen, San Diego, CA, cat. ant-pm-2), 10% defined fetal bovine serum, heat inactivated (HyClone Laboratories Inc., Logan, UT, cat. SH30070.03HI), 50% L-WRN conditioned media (ATCC, cat. CRL-3276), 1.25 mM N-Acetyl-L-cysteine (Sigma-Aldrich, cat. A9165), 10 mM nicotinamide (Sigma-Aldrich, cat. N0636), 1X B-27 supplement (Thermo Fisher Scientific, cat. 17504044), 1X N-2 supplement (Thermo Fisher Scientific, cat. 17502048), 50 ng/mL human EGF (Thermo Fisher Scientific, cat. PHG0311), and 10 microM Y-27632 dihydrochloride (Tocris Bioscience, cat. 1254). The K12877-001-R-J1-PDC line was cultured in 6I media, which includes all 6C/Colon 1B media plus 10 ng/mL human FGF-10 (PeproTech, cat. 100-26), 1 ng/mL human FGF-2 (PeproTech, cat. 100-18B), 1 µM prostaglandin E2 (Tocris Bioscience, cat. 2296), […] hydrocortisone (Sigma-Aldrich, cat. H4001), and […] bovine insulin (Sigma-Aldrich, cat. I6634). The K86415-001-R-J1-PDC line was cultured in 6D media, which includes all 6C/Colon 1B media components minus the L-WRN conditioned media. The 485176-168-R4-J1-PDC was cultured in PANC media, which includes all 6C/Colon 1B media plus 100 ng/mL human FGF-10 (PeproTech, cat. 100-26), 500 nM SB-431542 (Selleckchem, cat. S1067), and 10 nM gastrin (Tocris Bioscience, cat. 3006). […]
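Further: spheroids exposed to compound for seven days before readout.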
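Wherever viability, T/C is given: 100% = DMSO vehicle control wells.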

IC50 (second compound 0.000949 µM): < 31.6 nM | IC50 (second compound 0.003 µM): < 31.6 nM | IC50 (second compound 0.00949 µM): < 31.6 nM | IC50 (second compound 0.03 µM): < 31.6 nM | IC50 (second compound 0.0949 µM): < 31.6 nM | IC50 (second compound 0.3 µM): < 31.6 nM
SMILES: CC(=O)OC12COC1CC(O)C1(C)C(=O)C(O)C3=C(C)C(OC(=O)C(O)C(NC(=O)OC(C)(C)C)c4ccccc4)CC(O)(C(OC(=O)c4ccccc4)C21)C3(C)C (configuration not stated) + CCn1c(-c2cc(N3CCN(C)CC3)cnc2C(C)OC)c2c3cc(ccc31)-c1csc(n1)CC(NC(=O)C1CC1C)C(=O)N1CCCC(N1)C(=O)OCC(C)(C)C2
viability, T/C (second compound 0.000949 µM, first compound 0.0316 µM): 11.2% | viability, T/C (second compound 0.000949 µM, first compound 0.1 µM): 9.4% | viability, T/C (second compound 0.000949 µM, first compound 0.316 µM): 9.05% | viability, T/C (second compound 0.000949 µM, first compound 1 µM): 13.3% | viability, T/C (second compound 0.000949 µM, first compound 3.16 µM): 13.9% | viability, T/C (second compound 0.000949 µM, first compound 10 µM): 14.7% | viability, T/C (second compound 0.003 µM, first compound 0.0316 µM): 11.4% | viability, T/C (second compound 0.003 µM, first compound 0.1 µM): 12.9% | viability, T/C (second compound 0.003 µM, first compound 0.316 µM): 9.53% | viability, T/C (second compound 0.003 µM, first compound 1 µM): 12.5% | viability, T/C (second compound 0.003 µM, first compound 3.16 µM): 12.7% | viability, T/C (second compound 0.003 µM, first compound 10 µM): 12.8% | viability, T/C (second compound 0.00949 µM, first compound 0.0316 µM): 10.9% | viability, T/C (second compound 0.00949 µM, first compound 0.1 µM): 11.4% | viability, T/C (second compound 0.00949 µM, first compound 0.316 µM): 13% | viability, T/C (second compound 0.00949 µM, first compound 1 µM): 12.4% | viability, T/C (second compound 0.00949 µM, first compound 3.16 µM): 14.6% | viability, T/C (second compound 0.00949 µM, first compound 10 µM): 14.2% | viability, T/C (second compound 0.03 µM, first compound 0.0316 µM): 10.9% | viability, T/C (second compound 0.03 µM, first compound 0.1 µM): 10.7% | viability, T/C (second compound 0.03 µM, first compound 0.316 µM): 13.3% | viability, T/C (second compound 0.03 µM, first compound 1 µM): 12.9% | viability, T/C (second compound 0.03 µM, first compound 3.16 µM): 15.6% | viability, T/C (second compound 0.03 µM, first compound 10 µM): 14.6% | viability, T/C (second compound 0.0949 µM, first compound 0.0316 µM): 12.1% | viability, T/C (second compound 0.0949 µM, first compound 0.1 µM): 12.2% | viability, T/C (second compound 0.0949 µM, first compound 0.316 µM): 12.3% | viability, T/C (second compound 0.0949 µM, first compound 1 µM): 14.4% | viability, T/C (second compound 0.0949 µM, first compound 3.16 µM): 14.4% | viability, T/C (second compound 0.0949 µM, first compound 10 µM): 15.4% | viability, T/C (second compound 0.3 µM, first compound 0.0316 µM): 12.9% | viability, T/C (second compound 0.3 µM, first compound 0.1 µM): 11.9% | viability, T/C (second compound 0.3 µM, first compound 0.316 µM): 11.8% | viability, T/C (second compound 0.3 µM, first compound 1 µM): 15.8% | viability, T/C (second compound 0.3 µM, first compound 3.16 µM): 14.9% | viability, T/C (second compound 0.3 µM, first compound 10 µM): 18.7%

Reference: PubChem BioAssay AID2060882 (Molecular Pharmacology Branch, DTP, NCI, 2025)
